Assay results as given in US11266686B2, “Metal complexes and methods of treatment” (PROCYPRA THERAPEUTICS LLC, priority 2013, dated 2022).

Tested on: MPTP lesioned mice
Experiment: Stool frequency in MPTP lesioned mice
Type: in vivo, C57BL/6 mice
Conditions: versus vehicle or untreated
Excerpt: Several rodent models of Parkinson's Disease have shown gastrointestinal dysfunction, which has been correlated with the loss of neuronal subpopulations within the enteric nervous system. Intraperitoneal administration of MPTP (1-methyl-4-phenyl-1,2,3,6-tetrahydropyridine) caused a significant reduction in the number of dopaminergic neurons within the substantia nigra pars compacta of C57BL/6 mice. A reduction in neuronal subpopulations within the myenteric plexus of the ileum 21 days after lesioning was also detected and was concomitant with a reduction in stool frequency, indicative of digestive dysfunction.
Patients with neurological diseases, such as Parkinson's Diseases experiencing gastrointestinal disfunction such as constipation, may be associated with the loss of neuronal populations in conjunction with enteric glial cell reactivity within the myenteric plexus of the gastrointestinal tract. Treatment of these patients with metal complexes, such as CuATSM, that are neuroprotective in the central nervous system provides symptom release and also results in disease modifying in the gastrointestinal tract.
MPTP lesioned mice may be treated with the NCD of CuATSM, and the results are compared with untreated mice.

CNC1=NN=C(C)C(C)=NN=C(NC)[S][Cu][S]1 [CuATSM, Copper(II) diacetyl-di(N4-methyl)thiosemicarbazone, reference compound]
stool frequency: improved stool frequency
